Reference: ChEMBL document CHEMBL1201862, “PubChem BioAssay data set” (2004)
One block for each compound: values may come before it. Activity calls are given as the source filed them.

How the values were obtained:
[1] = viability inhibitors of stage V gametocytes – luminescence, dose response (AID 1117278); type: functional, cell-based;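 also: gametocytes exposed to compound for 24 hours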
[2] = viability loss in human Jurkat cells – cell-based, luminescence, cytotoxicity control for P. falciparum gametocyte viability project, dose response (AID 1117277); type: functional;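 also: potency reflects loss of cellular ATP meaning fewer viable cells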
[3] = target: G-protein coupled receptor 183 (Homo sapiens, UniProt P32249); assay: SAR confirmation of small molecule antagonists of the EBI2 receptor via a luminescent beta-arrestin assa.; type: functional
Chain of G-protein coupled receptor 183 (P32249 whole entry): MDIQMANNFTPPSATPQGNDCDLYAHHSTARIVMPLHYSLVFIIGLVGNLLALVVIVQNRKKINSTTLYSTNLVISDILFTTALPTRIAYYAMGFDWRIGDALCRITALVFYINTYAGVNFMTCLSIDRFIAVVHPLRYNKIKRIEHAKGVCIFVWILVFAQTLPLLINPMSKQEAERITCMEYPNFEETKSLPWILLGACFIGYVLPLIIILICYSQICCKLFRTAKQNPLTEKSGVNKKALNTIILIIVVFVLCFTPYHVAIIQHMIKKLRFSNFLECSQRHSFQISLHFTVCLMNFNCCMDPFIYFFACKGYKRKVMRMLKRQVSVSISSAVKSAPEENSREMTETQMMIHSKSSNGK

[4] = MITF Measured in Cell-Based System Using Plate Reader - 2084-01_Inhibitor_Dose_DryPowder_Activity_Set7.; type: functional
[5] = cytotoxicity in MITF-independent A375 cells – cell-based, CellTiter-Glo luminescence, dry powder, set 9, counter-screen for MITF modulator project, dose response (AID 651591); type: functional; conditions: A-375
[6] = MITF Orthogonal Assay: MALME3 CTG Assay Measured in Cell-Based System Using Plate Reader - 2084-04_Inhibitor_Dose_DryPowder_Activity_Set6.; type: functional; conditions: MALME-3
[7] = cytotoxicity in melanoma parental cells – cell-based, CellTiter-Glo, dry powder, set 6, MITF inhibitor project, dose response (AID 624429); type: functional; conditions: SK-MEL-5
[8] = cytotoxicity in MITF-independent A375 cells – cell-based, CellTiter-Glo luminescence, dry powder, set 4, counter-screen for MITF inhibitor project, dose response (AID 624364); type: functional; conditions: A-375;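 also: A375 melanoma cells are MITF independent so this is a counter screen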
[9] = viability loss in MITF-independent A375 cells – cell-based, CellTiter-Glo luminescence, dry powder, set 2, counter-screen for MITF inhibitor project, dose response (AID 624489); type: functional; conditions: A-375;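 also: actives are compounds lowering A375 viability meaning general cytotoxicity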
[10] = MITF Orthogonal Assay: SK-MEL-5 CTG Assay Measured in Cell-Based System Using Plate Reader - 2084-02_Inhibitor_Dose_DryPowder_Activity_Set5.; type: functional
[11] = viability loss in MITF-independent A375 cells – cell-based, CellTiter-Glo luminescence, dry powder, set 6, counter-screen for MITF inhibitor project, dose response (AID 624488); type: functional; conditions: A-375
[12] = growth inhibition of MALME3 cells – cell-based, CellTiter-Glo luminescence, dry powder, set 5, orthogonal assay for MITF inhibitor project, dose response (AID 651584); type: functional; conditions: MALME-3
[13] = melanocyte viability loss, MITF-dependent cells, cell-based, plate reader, dry powder, cytotoxicity control, dose response (AID 651920); type: functional
[14] = viability loss in MITF-independent A375 cells – cell-based, CellTiter-Glo luminescence, dry powder, set 7, counter-screen for MITF inhibitor project, dose response (AID 624490); type: functional; conditions: A-375
[15] = growth inhibition of SK-MEL-5 melanoma cells – cell-based, CellTiter-Glo luminescence, dry powder, set 8, orthogonal assay for MITF inhibitor project, dose response (AID 651586); type: functional
[16] = inhibitors of TRPM1-promoter reporter in SK-MEL-5 – cell-based, luciferase, dry powder, set 9, MITF inhibitor project, dose response (AID 651588); type: functional
[17] = MITF Measured in Cell-Based System Using Plate Reader - 2084-01_Inhibitor_Dose_DryPowder_Activity_Set6.; type: functional
[18] = cytotoxicity toward HT-29 cells – cell-based, CellTiter-Glo luminescence, IC50, dose response (AID 1117330); type: functional
[19] = RKO cell viability reduction, dose response, CellTiter-Glo luminescence (AID 1117322); type: functional
[20] = Reduced DLD-1 viability, concentration-response, CellTiter-Glo luminescence (AID 1117352); type: functional
[21] = HCT116 cell viability decrease, GSK3B pretreatment – CellTiter-Glo, IC50, dose response (AID 1117339); type: functional; conditions: HCT-116
[22] = rise of 2N DNA cells, HeLa – IC50, dose response (AID 1117349); type: functional, cell-based
[23] = Luminescence Cell-Based Dose Retest to Confirm Inhibitors of Cancer Stem Cells. [Related pubchem assays (depositor defined):AID2717, AID2721]; type: functional; conditions: Homo sapiens
[24] = cytotoxicity toward Colo320 cells – cell-based, CellTiter-Glo luminescence, IC50, dose response (AID 1117334); type: functional; conditions: COLO 320
[25] = SNU-C1 cell viability reduction, dose response, CellTiter-Glo luminescence (AID 1117323); type: functional, cell-based
[26] = rise of 4N DNA cells, HeLa – IC50, dose response (AID 1117351); type: functional, cell-based
[27] = CellTiter-Glo luminescence survival assay, SW480 colon tumor line, concentration-response curve, half-maximal inhibitory concentration (AID 1117338); type: functional
[28] = cytotoxicity toward HCT116 cells – cell-based, CellTiter-Glo luminescence, IC50, dose response (AID 1117332); type: functional; conditions: HCT-116
Caspase-6 = Caspase-6 (Homo sapiens, UniProt P55212); assay: inhibition of CASP6 peptide cleavage – biochemical, VEID-R110 fluorescence, cherry-pick, dose response (AID 720632)
Chain of Caspase-6 (P55212 24-179 limits assumed): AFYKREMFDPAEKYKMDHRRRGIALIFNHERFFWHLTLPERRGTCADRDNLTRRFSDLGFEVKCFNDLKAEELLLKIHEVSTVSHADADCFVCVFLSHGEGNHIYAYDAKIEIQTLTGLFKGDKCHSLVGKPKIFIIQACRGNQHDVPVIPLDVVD
Chain of Caspase-6 (P55212 194-293 limits assumed): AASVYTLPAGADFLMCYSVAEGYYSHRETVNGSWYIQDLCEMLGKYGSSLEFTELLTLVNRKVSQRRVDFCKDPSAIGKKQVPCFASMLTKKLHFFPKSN

[29] = viability loss in A549 lung cells – cell-based, 24 h, CellTiter-Glo luminescence, cherry-picks, cytotoxicity control, dose response (AID 1053115); type: functional; conditions: A549, 24 h
[30] = HIV-1 Vif–A3G interaction blockers – biochemical, TR-FRET, GST-Vif 1-94, biotin-A3G peptide, dose response retest, primary screen (AID 1117319); type: functional;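 also: TR-FRET signal of purified GST-Vif binding a biotinylated A3G peptide; inhibitors lower the FRET signal by blocking Vif and A3G binding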
Cytochrome P450 2C9 = Cytochrome P450 2C9 (Homo sapiens, UniProt P11712)
Chain of Cytochrome P450 2C9 (P11712 whole entry): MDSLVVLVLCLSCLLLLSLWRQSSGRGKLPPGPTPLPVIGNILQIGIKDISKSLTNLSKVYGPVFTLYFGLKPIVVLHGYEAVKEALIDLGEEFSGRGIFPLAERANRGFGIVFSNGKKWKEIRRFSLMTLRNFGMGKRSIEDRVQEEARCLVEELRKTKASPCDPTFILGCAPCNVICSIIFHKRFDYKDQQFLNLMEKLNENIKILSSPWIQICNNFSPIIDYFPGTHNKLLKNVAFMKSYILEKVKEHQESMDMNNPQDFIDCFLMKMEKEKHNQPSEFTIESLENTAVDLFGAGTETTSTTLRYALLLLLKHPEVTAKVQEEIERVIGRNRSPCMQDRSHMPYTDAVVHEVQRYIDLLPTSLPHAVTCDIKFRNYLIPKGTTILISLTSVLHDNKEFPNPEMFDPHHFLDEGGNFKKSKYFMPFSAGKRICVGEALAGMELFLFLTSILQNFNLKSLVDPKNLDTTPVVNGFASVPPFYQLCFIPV

Cytochrome P450 2C19 = Cytochrome P450 2C19 (Homo sapiens, UniProt P33261); assay: Cytochrome panel assay with activity outcomes. Panel member name: p450-cyp2c19 Compounds with AC50 equal or less than 10 uM are considered active; type: functional; conditions: read-out: AC50
Chain of Cytochrome P450 2C19 (P33261 whole entry): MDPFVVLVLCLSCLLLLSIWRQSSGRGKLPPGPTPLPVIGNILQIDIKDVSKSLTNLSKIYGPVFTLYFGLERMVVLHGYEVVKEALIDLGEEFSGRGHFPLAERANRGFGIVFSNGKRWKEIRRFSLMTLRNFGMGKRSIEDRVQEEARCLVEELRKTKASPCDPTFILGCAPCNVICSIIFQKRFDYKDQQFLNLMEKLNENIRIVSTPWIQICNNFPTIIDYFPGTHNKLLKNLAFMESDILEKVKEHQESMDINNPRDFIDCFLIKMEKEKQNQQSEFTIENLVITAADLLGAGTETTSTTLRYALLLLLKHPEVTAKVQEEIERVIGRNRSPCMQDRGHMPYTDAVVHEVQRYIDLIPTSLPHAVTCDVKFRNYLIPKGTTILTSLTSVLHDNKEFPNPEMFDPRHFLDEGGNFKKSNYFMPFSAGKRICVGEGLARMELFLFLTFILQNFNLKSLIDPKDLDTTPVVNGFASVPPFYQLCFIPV

[31] = COV362 cell viability loss – plate reader, dry powder, SA12, cytotoxicity control for PAX8 inhibitor project, dose response (AID 743144); type: functional, cell-based
[32] = PAX8-dependent cell viability loss – plate reader, dry powder, dose response (AID 743049); type: functional, cell-based
[33] = OV-90 cell viability loss – plate reader, dry powder, SA8, PAX8 inhibitor project, dose response (AID 743149); type: functional, cell-based
[34] = toxicity toward immortalized ovarian surface epithelium – cell-based, plate reader, dry powder samples, cytotoxicity control for PAX8 inhibitor project, dose response (AID 743045); type: functional
Paired box protein Pax-8 = Paired box protein Pax-8 (Homo sapiens, UniProt Q06710); assay: PAX8 transcriptional activity inhibition in RMG-I – RMG-I cells, luciferase, cherry-pick, dose response (AID 687027); type: functional, cell-based;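 also: luciferase reporter driven by Pax8 target thyroperoxidase promoter measured by SteadyGlo luminescence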
Chain of Paired box protein Pax-8 (Q06710 whole entry): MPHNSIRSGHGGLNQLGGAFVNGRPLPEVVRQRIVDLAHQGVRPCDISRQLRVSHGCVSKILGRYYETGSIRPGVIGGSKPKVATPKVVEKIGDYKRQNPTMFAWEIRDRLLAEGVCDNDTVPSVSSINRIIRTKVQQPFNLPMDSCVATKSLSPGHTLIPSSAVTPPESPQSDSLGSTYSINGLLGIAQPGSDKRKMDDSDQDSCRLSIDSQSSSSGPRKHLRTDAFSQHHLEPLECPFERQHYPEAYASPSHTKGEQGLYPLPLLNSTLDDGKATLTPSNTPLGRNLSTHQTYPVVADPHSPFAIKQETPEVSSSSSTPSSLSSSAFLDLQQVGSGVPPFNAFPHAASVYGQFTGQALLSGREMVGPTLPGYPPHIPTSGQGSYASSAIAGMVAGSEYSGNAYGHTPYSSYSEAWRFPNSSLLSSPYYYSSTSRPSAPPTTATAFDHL

[35] = IGROV1 cell killing – plate reader, dry powder samples, PAX8 inhibitor project, dose response (AID 743043); type: functional, cell-based; conditions: IGROV-1
[36] = PAX5 cellular inhibition readout – cell-based, plate reader, dry powder samples, selectivity assay for PAX8 inhibitor project, dose response (AID 743047); type: functional;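 also: HEK293 cells carrying a Pax5 driven CD19 promoter luciferase reporter; potency of inhibitors that lower reporter luminescence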
[37] = OVCAR-3 cell viability loss – plate reader, dry powder samples, PAX8 inhibitor project, dose response (AID 743044); type: functional, cell-based
[38] = OVCAR4 cell viability loss – plate reader, dry powder, SA11, cytotoxicity control for PAX8 inhibitor project, dose response (AID 743150); type: functional, cell-based; conditions: OVCAR-4
[39] = COV434 cell viability loss – plate reader, dry powder, SA7, cytotoxicity control for PAX8 inhibitor project, dose response (AID 743145); type: functional, cell-based

SMILES: C=CCn1c(SCC(=O)NCc2ccc3c(c2)OCO3)nc2scc(-c3ccc(F)cc3)c2c1=O
IC50 [1]: > 109 µM (inactive)
IC50 [2]: 68.6 µM (inactive)

SMILES: O=C(/C=C/c1ccccc1)N1CCN(Cc2ccc(Cl)cc2)CC1
IC50 [3]: 0.0984 µM (active)

SMILES: COC1=C(NS(=O)(=O)c2ccccc2)C(=O)c2ccccc2C1=O
AC50 [4]: 7.44 µM (active)
AC50 [5]: > 70 µM (inactive)
AC50 [6]: 31.8 µM (active)
AC50 [7]: 16.4 µM (active)
AC50 [8]: > 70 µM (inactive)
AC50 [9]: > 70 µM (inactive)
AC50 [10]: 9.13 µM (active)
AC50 [11]: > 70 µM (inactive)
AC50 [12]: 31.8 µM (active)
AC50 [13]: 27.5 µM (active)
AC50 [14]: > 70 µM (inactive)
AC50 [15]: 14.5 µM (active)
AC50 [16]: 18.9 µM (active)
AC50 [17]: 6.32 µM (active)

SMILES: O=C1[C@H]2CCCC[C@H]2C(=O)N1CCCCN1CCN(c2nsc3ccccc23)CC1
IC50 [18]: 2.01 µM (active)
IC50 [19]: 0.546 µM (active)
IC50 [20]: 8.24 µM (inactive)
IC50 [21]: 1.67 µM (active)
IC50 [22]: > 10 µM (inactive)
AC50 [23]: 3.47 µM (active)
IC50 [24]: 13.2 µM (inactive)
IC50 [25]: 9.37 µM (inactive)
IC50 [26]: > 10 µM (inactive)
IC50 [27]: 5.91 µM (inactive)
IC50 [28]: 2.06 µM (active)

AC50 (Caspase-6): 30.7 µM (active)
SMILES: O=C(Nc1sc2c(c1C(=O)O)CCC2)C(=O)N1CCOCC1

SMILES: OC[C@H]1Nc2ccc(-c3cccc(F)c3)cc2[C@H]2[C@@H]1CCN2Cc1ccc(F)cc1
AC50 [29]: 45.3 µM (active)

IC50 [30]: > 100 µM (active)
AC50 (Cytochrome P450 2C9): 31.6 µM (inconclusive)
AC50 (Cytochrome P450 2C19): 31.6 µM (inconclusive)
SMILES: COC(=O)[C@@]1(Cc2ccc(OC)cc2)[C@H]2c3cc(C(=O)N(C)C)n(C[C@H](O)CO)c3C[C@H]2CN1C(=O)c1ccccc1

SMILES: NS(=O)(=O)c1ccc(CCN2C(=O)/C(=C\c3ccc(Cl)cc3)SC2=S)cc1
AC50 [31]: 24.9 µM (active)
AC50 [32]: 15.5 µM (active)
AC50 [33]: 26.2 µM (active)
AC50 [34]: 79.8 µM (active)
AC50 (Paired box protein Pax-8): 3.81 µM (active)
AC50 [35]: 30.4 µM (active)
AC50 [36]: 67.7 µM (active)
AC50 [37]: 22.3 µM (active)
AC50 [38]: 48.2 µM (active)
AC50 [39]: 29.8 µM (active)
